BigSolDB 2.1

NC(=O)c1cnccn1
solubility (mole fraction)
Conditions	283.15 K	293.15 K	303.15 K	313.15 K	323.15 K	333.15 K
in 1,4-dioxane	–	0.0072	0.0107	0.0138	0.0202	0.0285
in acetone	0.00244	0.00386	0.00583	0.00768	0.0116	–
in methanol	0.00268	0.00398	0.00586	0.0086	0.0122	–
